Source: patent publication US20060004002A1 (priority 2004, published 2006)
Read-outs that look alike come from different tables or passages of the source.

Tests used:
[1] = molecular target: T1, Recombinant human Src (Homo sapiens, UniProt P12931); test: Src tyrosine kinase activity assay with poly E4Y and 32P-ATP; type: biochemical
T1 construct: made in house; host or cells: baculovirus-insect cell system
Procedure: (§1) Recombinant human Src was expressed using the baculovirus-insect cell system and purified as published (Budde et al., 1993 and 2000). Recombinant Csk and the FGF receptor (FGFr) were expressed as […] fusion proteins using the pGEX expression vector and E. coli, and purified as described (Sun & Budde, 1995).
(§2) The tyrosine kinase activity of Src, Csk and FGFr was determined using poly E4Y and ^32P-ATP. Briefly, enzymes were assayed in a reaction mixture […] consisting of 0.15 M EPPS-NaOH (pH 8.0) with 6 mM MgCl2, 0.2 mM γ^32P-ATP (0.2-0.4 mCi/μmol), 10% glycerol, 0.1% Triton X-100, and poly E4Y. Poly E4Y is a synthetic peptide whose phosphorylation is measured in this assay by the addition of the radioactively labeled phosphate from the ATP (Budde et al., 1995). […] When ATP was varied (0, 50, 100 and 250 μM), poly E4Y was kept constant at 150 μg/ml.

[2] = molecular target: T2, Recombinant Csk (Homo sapiens, UniProt P41240); test: Csk tyrosine kinase activity assay with poly E4Y and 32P-ATP; type: biochemical; settings: NI = no inhibition
T2 construct: GST ('glutathione-5-transferase' [sic]); made in house; host or cells: E. coli (pGEX expression vector)
Procedure: as §1, §2

[3] = especially good inhibitors of Src, screening assay 50 μg/ml poly E4Y, 0.2 mM ATP, read-out: IC50 (inhibitors of Src)
[4] = poly E4Y, 32P-ATP, NI = no inhibition, read-out: IC50 Value Src

IC50 [1, 3] [nM] | IC50 [1, 4] [nM] | IC50 [2] [nM] | Compound
≤ 2000 | 39 | 1350 | C=Cc1c(-c2ccccc2OCC)sc2c(NN=Cc3ccc(OC)c(O)c3)ncnc12 [Compound 34, 3-Hydroxy-4-methoxybenzaldehyde (6-(2-ethoxyphenyl)-7-vinylthieno[3,2-d]pyrimidin-4-yl)hydrazone]
 | 43 | 12000 | COc1ccc(C=NNc2ncnc3c(CO)c(-c4ccc(N)cc4)sc23)cc1O [Compound 58, 3-Hydroxy-4-methoxybenzaldehyde (6-(4-aminophenyl)-7-hydroxymethylthieno[3,2-d]pyrimidin-4-yl)hydrazone]
 | 5 | 7100 | CCOc1ccccc1-c1sc2c(NN=Cc3cccc(C(=O)O)c3)ncnc2c1O [Compound 116, 3-Carboxybenzaldehyde (6-(2-ethoxyphenyl)-7-hydroxythieno[3,2-d]pyrimidin-4-yl)hydrazone]
 | 4 | 7200 | CCOc1ccccc1-c1sc2c(NN=Cc3ccncc3)ncnc2c1O [Compound 112, 4-Pyridinecarboxaldehyde (6-(2-ethoxyphenyl)-7-hydroxythieno[3,2-d]pyrimidin-4-yl)hydrazone]
≤ 2000 | 2.6 | 1280 | CCOc1ccccc1-c1sc2c(NN=Cc3ccc(OC)c(O)c3)ncnc2c1O [Compound 37, 3-Hydroxy-4-methoxybenzaldehyde (6-(2-ethoxyphenyl)-7-hydroxythieno[3,2-d]pyrimidin-4-yl)hydrazone]
 | 160 | 23000 | COc1ccc(C=NNc2ncnc3c(C)c(-c4ccc([N+](=O)[O-])cc4)sc23)cc1O [Compound 39, 3-Hydroxy-4-methoxybenzaldehyde (6-(4-nitrophenyl)-7-methylthieno[3,2-d]pyrimidin-4-yl)hydrazone]
≤ 2000 | 1.6 | 980 | CCOc1ccccc1-c1sc2c(NN=Cc3ccc(O)cc3)ncnc2c1O [Compound 104, 4-Hydroxybenzaldehyde (6-(2-ethoxyphenyl)-7-hydroxythieno[3,2-d]pyrimidin-4-yl)hydrazone]
 | 11 | 47000 | COc1ccc(C=NNc2ncnc3c(C)c(-c4ccc(C(N)=NO)cc4)sc23)cc1O [Compound 51, 3-Hydroxy-4-methoxybenzaldehyde (6-(N-hydroxy-benzamidin-4-yl)-7-methylthieno[3,2-d]pyrimidin-4-yl)hydrazone]
 | 12 | 112000 | COc1ccc(C=NNc2ncnc3c(C)c(-c4ccc(NC(C)=O)cc4)sc23)cc1O [Compound 43, 3-Hydroxy-4-methoxybenzaldehyde (6-(4-N-acetylaminophenyl)-7-methythieno[3,2-d]pyrimidin-4-yl)hydrazone]
 | 25 | 42000 | Cc1c(-c2ccc(C(N)=NO)cc2)sc2c(NN=Cc3cccnc3)ncnc12 [Compound 50, 3-Pyridinecarboxaldehyde (6-(N-hydroxy-benzamidin-4-yl)-7-methylthieno[3,2-d]pyrimidin-4-yl)hydrazone]
 | 180 | 500000 | COc1ccc(C=NNc2ncnc3c(C)c(-c4ccccc4O)sc23)cc1O [Compound 84, 3-Hydroxy-4-methoxybenzaldehyde (6-(2-hydroxyphenyl)-7-methylthieno[3,2-d]pyrimidin-4-yl)hydrazone]
 | 1.4 | 26000 | CCOc1ccccc1-c1sc2c(NN=Cc3ccc(C(=O)O)cc3)ncnc2c1C#N [compound 68]
 | 1.5 | 13000 | CCOc1ccccc1-c1sc2c(NN=Cc3cccc(O)c3)ncnc2c1C#N [compound 103]
 | 9 | 15000 | CCOc1ccccc1-c1sc2c(NN=Cc3sccc3C)ncnc2c1O [Compound 124, 3-Methyl-2-thiophenecarboxaldehyde (6-(2-ethoxyphenyl)-7-hydroxythieno[3,2-d]pyrimidin-4-yl)hydrazone]
 | 4.1 | 124000 | Cc1c(-c2cccc(C(N)=NO)c2)sc2c(NN=Cc3cccnc3)ncnc12 [Compound 49, 3-Pyridinecarboxaldehyde (6-(N-hydroxy-benzamidin-3-yl)-7-methylthieno[3,2-d]pyrimidin-4-yl)hydrazone]
 | 36 | 210000 | CCOc1cc(F)ccc1-c1sc2c(NN=Cc3ccc(OC)c(O)c3)ncnc2c1CO [Compound 60, 3-Hydroxy-4-methoxybenzaldehyde (6-(2-ethoxy-4-fluorophenyl)-7-hydroxymethylthieno[3,2-d]pyrimidin-4-yl)hydrazone]
 | 5 | 5500 | CCOc1ccccc1-c1sc2c(NN=Cc3[nH]cnc3C)ncnc2c1O [Compound 117, 4-Methyl-5-imidazolecarboxaldehyde (6-(2-ethoxyphenyl)-7-hydroxythieno[3,2-d]pyrimidin-4-yl)hydrazone]

IC50 [1, 3] [nM] | IC50 [1, 4] [nM] | IC50 [2] [nM] | Compound
 | 11 | 10000 | CCOc1ccccc1-c1sc2c(NN=Cc3ccc(OC)c(O)c3)ncnc2c1CO [Compound 33, 3-Hydroxy-4-methoxybenzaldehyde (7-hydroxymethyl-6-(2-ethoxyphenyl)thieno[3,2-d]pyrimidin-4-yl)hydrazone]
≤ 2000 | 4.3 | 900 | CCOc1ccccc1-c1sc2c(NN=Cc3cccc(O)c3)ncnc2c1O [Compound 105, 3-Hydroxybenzaldehyde (6-(2-ethoxyphenyl)-7-hydroxythieno[3,2-d]pyrimidin-4-yl)hydrazone]
 | 1.1 | 46000 | CCOc1ccccc1-c1sc2c(NN=Cc3ccc(OC)c(OCCN4CCOCC4)c3)ncnc2c1C [Compound 52, 4-Methoxy-3-(2-(morpholin-4-yl)-ethoxy)-benzaldehyde (6-(2-ethoxyphenyl)-7-methylthieno[3,2-d]pyrimidin-4-yl)hydrazone]
≤ 2000 | 0.73 | 580 | CCOc1ccccc1-c1sc2c(NN=Cc3cc(OC)c(O)c(OC)c3)ncnc2c1O [Compound 96, 3,5-Dimethoxy-4-hydroxybenzaldehyde (6-(2-ethoxyphenyl)-7-hydroxythieno[3,2-d]pyrimidin-4-yl)hydrazone]
 | 4.9 |  | CCOc1cc(F)ccc1-c1sc2c(NN=Cc3ccc(OC)c(O)c3)ncnc2c1C [Compound 57, 3-Hydroxy-4-methoxybenzaldehyde (6-(2-ethoxy-4-fluorophenyl)-7-methylthieno[3,2-d]pyrimidin-4-yl)hydrazone]
 | 0.84 |  | CCOc1ccccc1-c1sc2c(NN=Cc3ccccc3F)ncnc2c1C [Compound 78, 2-Fluorobenzaldehyde (6-(2-ethoxyphenyl)-7-methylthieno[3,2-d]pyrimidin-4-yl)hydrazone]
 | 2.1 |  | CCOc1ccccc1-c1sc2c(NN=Cc3ccc(O)c(Cl)c3)ncnc2c1C#N [compound 90]
 | 0.99 |  | CCOc1ccccc1-c1sc2c(NN=Cc3cc(OC)c(O)c(OC)c3)ncnc2c1C [Compound 65, 3,5-Dimethoxy-4-hydroxybenzaldehyde (6-(2-ethoxyphenyl)-7-methylthieno[3,2-d]pyrimidin-4-yl)hydrazone]
 | 15 |  | COc1ccc(C=NNc2ncnc3c(C)c(-c4ccc(O)cc4)sc23)cc1O [Compound 38, 3-Hydroxy-4-methoxybenzaldehyde (6-(4-hydroxyphenyl)-7-methylthieno[3,2-d]pyrimidin-4-yl)hydrazone]
 | 28 |  | CCOc1ccccc1-c1sc2c(NN=Cc3cccs3)ncnc2c1CO [Compound 71, 2-Thiophenecarboxaldehyde (6-(2-ethoxyphenyl)-7-hydroxymethylthieno[3,2-d]pyrimidin-4-yl)hydrazone]
 | 24 |  | 4-Carboxybenzaldehyde (6-(4-aminomethyl)phenyl-7-methylthieno[3,2-d]pyrimidin-4-yl)hydrazone [Compound 2]
 | 6.4 |  | CCOc1ccccc1-c1sc2c(NN=Cc3ccc4c(c3)OCCO4)ncnc2c1C [Compound 66, 2,3-Dihydro-benzo[1,4]dioxine-6-carbaldehyde (6-(2-ethoxyphenyl)-7-methylthieno[3,2-d]pyrimidin-4-yl)hydrazone]
 | 1 |  | CCOc1ccccc1-c1sc2c(NN=Cc3cc(O)c(OC)c(OC)c3)ncnc2c1C#N [compound 98]
 | 8.7 |  | COc1ccc(C=NNc2ncnc3c(C)c(-c4ccc(N)cc4)sc23)cc1O [Compound 10, 3-Hydroxy-4-methoxybenzaldehyde (6-(4-aminophenyl)-7-methylthieno[3,2-d]pyrimidin-4-yl)hydrazone]
 | 38 |  | COc1ccc(C=NNc2ncnc3c(C)c(-c4ccccc4N)sc23)cc1O [Compound 13, 3-Hydroxy-4-methoxybenzaldehyde (6-(2-aminophenyl)-7-methylthieno[3,2-d]pyrimidin-4-yl)hydrazone]
 | 1.4 |  | CCOc1ccccc1-c1sc2c(NN=Cc3ccc(O)c(OC)c3)ncnc2c1C#N [compound 86]
 | 1.2 |  | COc1ccc(C=NNc2ncnc3c(C)c(-c4cccc(N)c4)sc23)cc1O [Compound 12, 3-Hydroxy-4-methoxybenzaldehyde (6-(3-aminophenyl)-7-methylthieno[3,2-d]pyrimidin-4-yl)hydrazone]

Compound | IC50 [1, 3] [nM] | IC50 [1, 4] [nM] | IC50 [2] [nM]
CCOc1ccccc1-c1sc2c(NN=Cc3ccc(OC)c(OCCN(CC)CC)c3)ncnc2c1C (single isomer, unassigned) [Compound 158] |  | 0.015 | 
